Where “and” joins values, the source holds several entries; their conditions need not be identical. Equal values may be shown once. Read-outs that look alike come from different tables or passages of the source.
Assays:
[1] = tested on: intracellular ROS in TBHP-induced B16F10 cells; test: DCFDA cellular ROS detection assay in TBHP-induced B16F10 cells; format: cell-based, murine; conditions: 5.0, 10 and 20 μM tested
Procedure: The intracellular reactive oxygen species (ROS) level was quantitatively determined using the dichlorofluorescin diacetate (DCFDA) cellular ROS detection assay kit (ab113851, Abcam, Cambridge, UK), according to the manufacturer’s instructions. Briefly, B16F10 cells were seeded in a 24-well plate at a density of 2 × 10^3 cells/well. The cells were washed three times using PBS and subjected to staining with 20 μM DCFDA in PBS for 20 min at 37 °C under dark conditions. After staining, the cells were washed with PBS again and incubated with 50 μM TBHP solution (Sigma-Aldrich, St. Louis, MO, USA). Cells were treated time-dependently (10, 30 min and 1 h) with the indicated concentrations of SPs and their glycosides in 0.1% bovine serum albumin containing culture media after DCFDA incubation. The ROS level was analyzed by a fluorescence microplate reader (SpectraMax Gemini XPS/EM, Molecular Devices, Sunnyvale, CA, USA) set at an excitation wavelength of 485 nm and an emission wavelength of 545 nm. Relative fluorescence intensity of controls was equated to 100%, with treatment conditions estimated proportionally.
The in vitro antioxidant activity of SP aglycones and their corresponding glycosides was evaluated through their DPPH-driven radical scavenging abilities in comparison with a well-known antioxidant, L-ascorbic acid. […] Although the mean IC50 values of HPP2G and HPP2DG appear to be a little lower than those of HPP3G and HPP3DG, respectively, there was, however, no statistically significant difference found within (also between) these glycoside groups. Next, we implemented a DCFDA cell-based ROS detection assay to determine whether the SP aglycones and their glycoside analogs function in vivo as antioxidants against intracellular ROS synthesis in the above-described B16F10 cells or not. The TBHP-induced cells were further incubated with different concentrations (5.0, 10 and 20 μM) of SPs and their glycosides for varied time periods (10, 30 min and 1 h).

[2] = biological target: T1, tyrosinase (mushroom origin) (Agaricus bisporus, UniProt C7FF04); test: In vitro tyrosinase inhibition with L-tyrosine as substrate; format: biochemical; conditions: for IC50: mushroom tyrosinase, L-tyrosine substrate, read-out: tyrosinase inhibitory IC50; for fold higher tyrosinase inhibitory effect than kojic acid: ratio of IC50 values vs kojic acid
T1 construct: purchased Sigma-Aldrich
Procedure: The in vitro inhibitory effects of SPs and their glycosides towards tyrosinase (Sigma-Aldrich; mushroom origin; 2000 Unit/mL) activities were determined using L-tyrosine as a substrate. Briefly, the reaction mixtures, comprising 100 μL phosphate buffer (pH 6.8, 100 mM), 20 μL of tyrosinase (250 U/mL) and 20 μL of varying concentrations of SPs and their glycosides (in DMSO), were preincubated at 30 °C for 10 min.

[3] = biological target: T2, porcine pancreas elastase (Sus scrofa, UniProt P00772); test: In vitro elastase inhibition with AAAPVN substrate; format: biochemical; conditions: read-out: elastase inhibitory IC50
T2 construct: purchased Sigma-Aldrich; host or cells: porcine pancreas
Procedure: The in vitro inhibitory effects of SPs and their glycosides on elastase activity (known as anti-wrinkle bioactivities) were assessed using porcine pancreas elastase (Sigma-Aldrich). Its synthetic substrate AAAPVN (Sigma-Aldrich) was dissolved in phosphate buffer (pH 8.0, 200 mM). In each well of a 96-well microplate, the above elastase (20 μL) was mixed with the SPs and their glycosides in the phosphate buffer (150 μL) and then pre-incubated at 25 °C for 15 min prior to substrate AAAPVN (30 μL) supplementation.

[4] = DPPH free radical scavenging assay (in vitro antioxidant activity); conditions: 100 μM DPPH, 30 °C, 15 min
Procedure: DPPH (1,1-diphenyl-2-picryl-hydrazyl-hydrate) free radical scavenging assay was employed for determining the in vitro antioxidant activity of SP aglycones and their generated glycosides; L-ascorbic acid was utilized as a positive control whereas DMSO only was used as negative control. The antioxidant activities were expressed as IC50 value (as the concentration of an antioxidant at which 50% of inhibition of free radicals). In brief, 1.9 mL of the 100 μM DPPH reagent (in MeOH) was added into 0.1 mL of each sample diluted within 0.1 to 2 mM range (0.1, 0.2, 0.5, 1.0 and 2.0 mM dissolved in DMSO). After being mixed well by shaking for 5 s, the mixtures were then incubated at 30 °C for 15 min, followed by measuring absorbance with a microplate reader at 515 nm.

[5] = tested on: melanin biosynthesis in B16F10 murine melanoma cells; test: Inhibition of α-MSH-induced cellular melanin biosynthesis in B16F10 cells; format: cell-based; conditions: fixed 20 μM treatments, 48 h, 2 μM α-MSH
Procedure: The inhibitory effects of SPs and their glycosides towards cellular melanin biosynthesis were examined using the above-described B16F10 murine melanoma cells. After 24 h seed cultivation in a 24-well plate, these cells were treated with the indicated concentrations of SPs and their glycosides for a further 48 h in the presence of 2 μM α-melanocyte stimulating hormone (α-MSH, Sigma-Aldrich). After washing twice with chilled Dulbecco’s PBS supplemented with calcium chloride and magnesium chloride, the resulting cells were treated with trypsin-EDTA solution (Sigma-Aldrich) to recover melanoma cells. After centrifugation at 1000× […] for 3 min, the cell pellet recovered was dissolved in 100 μL of 1 M NaOH solution (containing 10% DMSO) at 55 °C for 1 h. The melanin content was determined by the absorbance at 405 nm using a microplate reader according to the calibration curve obtained from melanin (Sigma-Aldrich) standards, and melanin synthesis inhibitory activities were expressed as the percentage inhibition of cellular melanin synthesis in the above assay; α-arbutin was used as positive control, while DMSO only was used as negative control.

[6] = tested on: recombinant StSPGT glycosyltransferase; test: Michaelis-Menten kinetics of recombinant StSPGT glycosyl transfer; format: biochemical, Streptomyces tenjimariensis ATCC 31603
From the text: (§1) To learn more details about the enzymatic function of a recombinant StSPGT, we investigated and determined its bio-catalytic properties using two nucleotide sugars as the glycosyl donor substrates; the production velocities of the corresponding glycosides were plotted against the varied glycosyl donor concentrations, […] with fixed acceptor concentrations. […]
(§2) the pGEM T-Easy vector (Promega, Madison, WI, USA) and transformed into E. coli XL1-Blue strain (Stratagene, La Jolla, CA, USA). The resultant plasmid obtained from was sequenced; the amplified ORF of interest (annotated as StSPGT) was deposited as GenBank Accession No.
The NdeI/XhoI-digested fragment excised from the aforementioned pGEM T-Easy vector was cloned into the same sites of the expression vector pET-28a(+) (Novagen, San Diego, CA, USA) and expressed as an N-terminal fusion protein with an His6 tag in E. coli BL21(DE3) strain (selected with […] kanamycin). After induction using 0.5 mM IPTG (Sigma-Aldrich) followed by an overnight incubation at 22°C, the cells were harvested and then disrupted by ultrasonication. The His6-tagged protein from the lysate was purified with TALON-metal affinity resin (Clontech, Mountain View, CA, USA) equilibrated with 50 mM phosphate buffer (0.3 M NaCl, 20 mM imidazole) and incubated at 4°C for 1 hr. After 5 min of refrigerated centrifuge at 2000 rpm, the resin was introduced into a disposable column and washed with phosphate buffer containing 20 mM imidazole, equivalent to 8 times the amount of the resin. Finally, recombinant […]
imidazole . The protein concentration was determined according to the Bradford method and the purified StSPGT was stored at −20°C prior to enzymatic reactions.
In vitro Enzymatic GT Reactions and Its Kinetic Studies
After dissolving two SP acceptor substrates, including HPP2 and HPP3, in methanol at 100 mM, we diluted them with a reaction buffer solution (50 mM phosphate buffer, 10 mM magnesium chloride and 1 mg/mL bovine serum albumin; pH 7.4) to the final concentration of 1 mM. Then we added 30 μM StSPGT glycosyltransferase along with four different nucleotide-activated glycosyl […]
GT reaction at 30°C for 30 min. After reaction, an equal volume of ethyl acetate was immediately added to quench the reaction. The organic solvent layer was evaporated to dryness at 40°C by […]
vacuum centrifugation (EYELA, Tokyo, Japan), and finally reconstituted in methanol prior to HPLC-tandem mass spectrometric (MS/MS) analysis.
For the determination of the kinetic parameters for each SP acceptor substrate, the concentration of glycosyl donor was fixed at 2 mM, while the concentration of SP was varied from […]

[7] = set-up: method as in PMID 35453457; conditions: read-out: DPPH radical scavenging IC50; cited from earlier work
StSPGT [8] = tested on: T3, StSPGT; test: Michaelis-Menten kinetics of glycosyl transfer by HPLC-MS/MS product quantitation, donor varied 0.1-1.2 mM at fixed 1.0 mM acceptor HPP2, 50 mM phosphate pH 7.4, 10 mM MgCl2, 30 °C.; format: biochemical; conditions: SD, n = 3
T3 construct: recombinant, N-terminal His6 tag, pET-28a(+), expressed in E. coli BL21(DE3)
From the text: as §1, §2
(§3) The NdeI/XhoI-digested fragment excised from the aforementioned pGEM T-Easy vector was cloned into the same sites of the expression vector pET-28a(+) (Novagen, San Diego, CA, USA) and expressed as an N-terminal fusion protein with an His6 tag in E. coli BL21(DE3) strain (selected with […] kanamycin). After induction using 0.5 mM IPTG (Sigma-Aldrich) followed by an overnight incubation at 22°C, the cells were harvested and then disrupted by ultrasonication. […]
(§4) imidazole . The protein concentration was determined according to the Bradford method and the purified StSPGT was stored at −20°C prior to enzymatic reactions. […]

StSPGT [9] = tested on: T3, StSPGT; test: Michaelis-Menten kinetics of glycosyl transfer by HPLC-MS/MS product quantitation, donor varied 0.1-1.2 mM at fixed 1.0 mM acceptor HPP3, 50 mM phosphate pH 7.4, 10 mM MgCl2, 30 °C.; format: biochemical; conditions: SD, n = 3
From the text: as §1, §2, §3, §4

[10] = tested on: B16F10 murine melanoma cells; test: MTT cytotoxicity assay on B16F10 cells; format: cell-based; conditions: 48 h treatment, highest 20 mM concentration
Procedure: The cytotoxic effects of SP aglycones and their glycosides on B16F10 cells was determined using a conventional MTT assay. B16F10 murine melanoma cells were routinely maintained in Dulbecco’s modified Eagle’s medium (DMEM) (Gibco, New York, NY, USA) supplemented with 10% heat-inactivated fetal bovine serum (Gibco), 100 units/mL penicillin and 100 μg/mL streptomycin (Gibco) at 37 °C under humidified 5% CO2 atmosphere. For the assay, these B16F10 cells were seeded in advance in 24-well plastic tissue culture plates at a density of 2 × 10^3 cells/well. After 24 h cultivation, the cells within individual wells were treated with the indicated concentrations of SPs and their glycosides for 48 h. The cells were incubated with MTT solution for additional 4 h in the dark, and the reduced formazan crystals were then dissolved in DMSO; the DMSO percentage in the media was kept below 0.5%. The resulting mixture was transferred to a 96-well microplate, and then the absorbance was measured at 570 nm using a SpectraMax microplate reader (Molecular Devices, Sunnyvale, CA, USA).
[…]. The treatment concentrations of SP aglycones and their glycosides for the bioassays were selected in advance by monitoring their cytotoxicity against the B16F10 murine melanoma cell line using α-arbutin as the reference. […]

[11] = tested on: B16F10 murine melanoma cells; set-up: method as in PMID 28467382; conditions: concentrations less than 5.0 mM; cited from earlier work

T1 sequence (C7FF04 1-392 limits assumed): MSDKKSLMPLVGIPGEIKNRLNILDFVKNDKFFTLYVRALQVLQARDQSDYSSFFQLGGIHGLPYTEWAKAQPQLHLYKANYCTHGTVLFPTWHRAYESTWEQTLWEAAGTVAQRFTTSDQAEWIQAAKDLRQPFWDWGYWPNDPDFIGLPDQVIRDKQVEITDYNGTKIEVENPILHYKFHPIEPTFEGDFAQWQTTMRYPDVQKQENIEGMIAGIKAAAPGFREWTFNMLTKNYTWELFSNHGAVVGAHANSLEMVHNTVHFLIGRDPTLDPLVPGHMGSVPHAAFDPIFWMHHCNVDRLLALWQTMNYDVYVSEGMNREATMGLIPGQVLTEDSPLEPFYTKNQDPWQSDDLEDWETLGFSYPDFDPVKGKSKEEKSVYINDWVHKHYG
T2 sequence (P00772 27-266): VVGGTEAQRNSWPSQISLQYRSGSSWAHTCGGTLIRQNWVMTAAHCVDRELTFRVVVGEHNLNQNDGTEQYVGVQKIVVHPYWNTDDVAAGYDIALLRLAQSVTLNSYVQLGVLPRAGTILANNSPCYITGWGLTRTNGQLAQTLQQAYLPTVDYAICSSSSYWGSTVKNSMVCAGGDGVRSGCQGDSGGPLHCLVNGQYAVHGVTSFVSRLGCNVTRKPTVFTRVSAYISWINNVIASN

CC(Cc1ccc(O)cc1)O[C@@H]1C[C@@H](O)[C@H](O)[C@@H](CO)O1 (stereo partly drawn) [HPP2DG, hydroxyphenyl-2-propanoyl-O-α-2″-deoxyglucoside]
maximal ROS-scavenging activity [1]: 54.3%
IC50 [2]: 13.8 µM
IC50 [3]: 25.3 µM

CC(Cc1ccc(O)cc1)O[C@H]1O[C@H](CO)[C@@H](O)[C@H](O)[C@H]1O (stereo partly drawn) [HPP2G, hydroxyphenyl-2-propanoyl-O-α-glucoside]
maximal ROS-scavenging activity [1]: 52.0%
IC50 [2]: 14.8 µM
IC50 [3]: 22.1 µM

CC(O)Cc1ccc(O)cc1 (stereo not shown) [HPP2]
IC50 [4]: 18.5 µM
IC50 [2]: 11.6 µM
fold higher tyrosinase inhibitory effect than kojic acid [2]: about 6.6 fold
inhibition of α-MSH-induced intracellular melanin biosynthesis [5]: 50.3%
IC50 [3]: 95.3 µM
kcat ([6]; donor TDP-2′dGlc): 0.2155 ± 0.0363 s⁻¹
kcat ([6]; donor UDP-Glc): 0.3235 s⁻¹ and 0.3235 ± 0.0537 s⁻¹

CCC(O[C@@H]1C[C@@H](O)[C@H](O)[C@@H](CO)O1)c1ccc(O)cc1 (stereo partly shown) [HPP3DG]
maximal ROS-scavenging activity [1]: 45.7%
IC50 [2]: 30.9 µM
IC50 [3]: 30.7 µM

CCC(O[C@H]1O[C@H](CO)[C@@H](O)[C@H](O)[C@H]1O)c1ccc(O)cc1 (stereo partly shown) [HPP3G]
maximal ROS-scavenging activity [1]: 48.9%
IC50 [2]: 29.1 µM
IC50 [3]: 31.5 µM

CCC(O)c1ccc(O)cc1 (stereo not shown) [HPP3]
IC50 [4]: 19.3 µM
IC50 [2]: 23.4 µM
fold higher tyrosinase inhibitory effect than kojic acid [2]: ~3.3 fold
inhibition of α-MSH-induced intracellular melanin biosynthesis [5]: 21.7%
IC50 [3]: 99.1 µM
kcat ([6]; donor TDP-2′dGlc): 0.1865 ± 0.0372 s⁻¹
kcat ([6]; donor UDP-Glc): 0.2812 s⁻¹ and 0.2812 ± 0.0497 s⁻¹

O=C1O[C@H]([C@@H](O)CO)C(O)=C1O [L-ascorbic acid, reference compound]
IC50 [4]: 23 µM
IC50 [7]: 22 µM

Cc1cn([C@H]2C[C@H](O)[C@@H](COP(=O)(O)OP(=O)(O)O[C@@H]3C[C@@H](O)[C@H](O)[C@@H](CO)O3)O2)c(=O)[nH]c1=O [TDP-2′dGlc, thymidine diphosphate-2′-deoxyglucose]
Km (StSPGT [8]): 0.41 ± 0.07 mM
Km (StSPGT [9]): 0.5 ± 0.09 mM

Oc1ccc(O)cc1 [hydroquinone, reference compound]
IC50 [2]: 10.3 µM

OC[C@H]1O[C@H](Oc2ccc(O)cc2)[C@H](O)[C@@H](O)[C@@H]1O [α-arbutin]
change of cell viability [10]: less than 5 % of the control
inhibition of α-MSH-induced intracellular melanin biosynthesis [5]: about 20.3%
cytotoxicity for the B16F10 cells [11]: no cytotoxicity

— PMC9312196, “Enzymatic Biosynthesis of Simple Phenolic Glycosides as Potential Anti-Melanogenic Antioxidants” (Antioxidants, 2022)
